{"source": "patent US10934285B2", "about": "“Compounds and compositions for inhibiting the activity of SHP2” (Novartis AG, priority 2016, dated 2021)"}
{"biological_target": "SHP2 (Homo sapiens (Human), UniProt Q06124)", "sequence (Q06124 whole entry)": "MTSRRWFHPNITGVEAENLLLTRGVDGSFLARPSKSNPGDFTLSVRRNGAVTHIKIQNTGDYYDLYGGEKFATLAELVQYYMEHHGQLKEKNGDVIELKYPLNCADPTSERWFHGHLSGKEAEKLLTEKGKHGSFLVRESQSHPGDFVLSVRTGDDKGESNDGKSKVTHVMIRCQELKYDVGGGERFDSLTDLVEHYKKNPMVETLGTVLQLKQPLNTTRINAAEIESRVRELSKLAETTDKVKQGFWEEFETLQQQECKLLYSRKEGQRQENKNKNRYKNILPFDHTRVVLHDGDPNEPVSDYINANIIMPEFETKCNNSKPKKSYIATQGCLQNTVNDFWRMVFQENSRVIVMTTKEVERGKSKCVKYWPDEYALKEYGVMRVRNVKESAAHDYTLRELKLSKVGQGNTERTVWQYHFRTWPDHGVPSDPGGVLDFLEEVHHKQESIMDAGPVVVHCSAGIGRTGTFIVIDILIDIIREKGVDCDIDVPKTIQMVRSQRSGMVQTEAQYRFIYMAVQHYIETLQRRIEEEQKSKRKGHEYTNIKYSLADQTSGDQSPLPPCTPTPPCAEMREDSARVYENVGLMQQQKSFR", "assay": "SHP2 Allosteric Inhibition Assay", "assay_type": "biochemical", "conditions": "0.5 nM SHP2 activated with 0.5 μM peptide IRS1_pY1172(dPEG8)pY1222; surrogate substrate DiFMUP; prompt fluorescence", "from_the_text": "SHP2 Allosteric Inhibition Assay\nSHP2 is allosterically activated through binding of bis-tyrosyl-phorphorylated peptides to its Src Homology 2 (SH2) domains. The latter activation step leads to the release of the auto-inhibitory interface of SHP2, which in turn renders the SHP2 protein tyrosine phosphatase (PTP) active and available for substrate recognition and reaction catalysis. The catalytic activity of SHP2 was monitored using the surrogate substrate DiFMUP in a prompt fluorescence assay format.\nAfter 30-60 minutes incubation at 25° C., the surrogate substrate DiFMUP (Invitrogen, cat #D6567) was added to the reaction and incubated at 25° C. for 30 minutes. […] The inhibitor dose response curves were analyzed using normalized IC50 regression curve fitting with control based normalization.", "units": {"IC50": "nM"}}
{"smiles": "CC1(N)CCN(c2cnc(Sc3cccc(NC(=O)c4c(O)nc5ccccn5c4=O)c3Cl)c(N)n2)CC1", "note": "[Example 1, N-(3-((3-Amino-5-(4-amino-4-methylpiperidin-1-yl)pyrazin-2-yl)thio)-2-chlorophenyl)-2-hydroxy-4-oxo-4H-pyrido[1,2-a]pyrimidine-3-carboxamide]", "IC50": 6}
{"smiles": "CC1(CN)CCN(c2cnc(Sc3cccc(NC(=O)c4c(O)nc5ccccn5c4=O)c3Cl)c(N)n2)CC1", "note": "[Example 2, N-(3-((3-amino-5-(4-(aminomethyl)-4-methylpiperidin-1-yl)pyrazin-2-yl)thio)-2-chlorophenyl)-2-hydroxy-4-oxo-4H-pyrido[1,2-a]pyrimidine-3-carboxamide]", "IC50": 7}
{"smiles": "CC1(CN)CCN(c2cnc(Sc3cccc(NC(=O)c4c(O)nc5sccn5c4=O)c3Cl)c(N)n2)CC1", "note": "[Example 3, N-(3-((3-amino-5-(4-(aminomethyl)-4-methylpiperidin-1-yl)pyrazin-2-yl)thio)-2-chlorophenyl)-7-hydroxy-5-oxo-5H-thiazolo[3,2-a]pyrimidine-6-carboxamide]", "IC50": 6}
{"smiles": "Cn1c(=O)c(C(=O)Nc2cccc(Sc3ncc(N4CCC(C)(CN)CC4)nc3N)c2Cl)c(O)c2c(C3CC3)csc21", "note": "[Example 4, N-(3-((3-amino-5-(4-(aminomethyl)-4-methylpiperidin-1-yl)pyrazin-2-yl)thio)-2-chlorophenyl)-3-cyclopropyl-4-hydroxy-7-methyl-6-oxo-6,7-dihydrothieno[2,3-b]pyridine-5-carboxamide]", "IC50": 1030}
{"smiles": "CC1(CN)CCN(c2cnc(Sc3cccc(NC(=O)c4c(O)nc5cnccn5c4=O)c3Cl)c(N)n2)CC1", "note": "[Example 5, N-(3-((3-amino-5-(4-(aminomethyl)-4-methylpiperidin-1-yl)pyrazin-2-yl)thio)-2-chlorophenyl)-2-hydroxy-4-oxo-4H-pyrazino[1,2-a]pyrimidine-3-carboxamide]", "IC50": 3}
{"smiles": "CC1(CN)CCN(c2cnc(Sc3cccc(NC(=O)c4c(O)nc5[nH]ccn5c4=O)c3Cl)c(N)n2)CC1", "note": "[Example 6, N-(3-((3-amino-5-(4-(aminomethyl)-4-methylpiperidin-1-yl)pyrazin-2-yl)thio)-2-chloropheny1)-7-hydroxy-5-oxo-1,5-dihydroimidazo[1,2-a]pyrimidine-6-carboxamide]", "IC50": 5}
{"smiles": "CC1(CN)CCN(c2cnc(Sc3cccc(NC(=O)c4c(O)nc5n(c4=O)CCCC5)c3Cl)c(N)n2)CC1", "note": "[Example 7, N-(3-((3-amino-5-(4-(aminomethyl)-4-methylpiperidin-1-yl)pyrazin-2-yl)thio)-2-chlorophenyl)-2-hydroxy-4-oxo-6,7,8,9-tetrahydro-4H-pyrido[1,2-a]pyrimidine-3-carboxamide]", "IC50": 6}
{"smiles": "Cn1c(=O)c(C(=O)Nc2cccc(Sc3ncc(N4CCC(C)(CN)CC4)nc3N)c2Cl)c(O)c2ccccc21", "note": "[Example 8, N-(3-((3-amino-5-(4-(aminomethyl)-4-methylpiperidin-1-yl)pyrazin-2-yl)thio)-2-chlorophenyl)-4-hydroxy-1-methyl-2-oxo-1,2-dihydroquinoline-3-carboxamide]", "IC50": 44}
{"smiles": "CC1(CN)CCN(c2cnc(Sc3cccc(NC(=O)c4c(O)nc5n(c4=O)CCNC5)c3Cl)c(N)n2)CC1", "note": "[Example 9, N-(3-((3-amino-5-(4-(aminomethyl)-4-methylpiperidin-1-yl)pyrazin-2-yl)thio)-2-chlorophenyl)-2-hydroxy-4-oxo-6,7,8,9-tetrahydro-4H-pyrazino[1,2-a]pyrimidine-3-carboxamide]", "IC50": 7}
{"smiles": "NCC1(O)CCN(c2cnc(Sc3cccc(NC(=O)c4c(O)nc5ccccn5c4=O)c3Cl)c(N)n2)CC1", "note": "[Example 10, N-(3-((3-amino-5-(4-(aminomethyl)-4-hydroxypiperidin-1-yl)pyrazin-2-yl)thio)-2-chlorophenyl)-2-hydroxy-4-oxo-4H-pyrido[1,2-a]pyrimidine-3-carboxamide]", "IC50": 6}
{"smiles": "NCC1(O)CCN(c2cnc(Sc3cccc(NC(=O)c4c(O)nc5n(c4=O)CCCC5)c3Cl)c(N)n2)CC1", "note": "[Example 11, N-(3-((3-amino-5-(4-(aminomethyl)-4-hydroxypiperidin-1-yl)pyrazin-2-yl)thio)-2-chlorophenyl)-2-hydroxy-4-oxo-6,7,8,9-tetrahydro-4H-pyrido[1,2-a]pyrimidine-3-carboxamide]", "IC50": 12}
{"smiles": "N#CC1(CN)CCN(c2cnc(Sc3cccc(NC(=O)c4c(O)nc5n(c4=O)CCCC5)c3Cl)c(N)n2)CC1", "note": "[Example 12, N-(3-((3-amino-5-(4-(aminomethyl)-4-cyanopiperidin-1-yl)pyrazin-2-yl)thio)-2-chlorophenyl)-2-hydroxy-4-oxo-6,7,8,9-tetrahydro-4H-pyrido[1,2-a]pyrimidine-3-carboxamide]", "IC50": 260}
{"smiles": "Nc1nc(N2CCC(N)(CF)CC2)cnc1Sc1cccc(NC(=O)c2c(O)nc3ccccn3c2=O)c1Cl", "note": "[Example 13, N-(3-((3-amino-5-(4-amino-4-(fluoromethyl)piperidin-1-yl)pyrazin-2-yl)thio)-2-chlorophenyl)-2-hydroxy-4-oxo-4H-pyrido[1,2-a]pyrimidine-3-carboxamide]", "IC50": 4.6}
{"smiles": "Nc1nc(N2CCC(N)(CF)CC2)cnc1Sc1cccc(NC(=O)c2c(O)nc3n(c2=O)CCCC3)c1Cl", "note": "[Example 14, N-(3-((3-amino-5-(4-amino-4-(fluoromethyl)piperidin-1-yl)pyrazin-2-yl)thio)-2-chlorophenyl)-2-hydroxy-4-oxo-6,7,8,9-tetrahydro-4H-pyrido[1,2-a]pyrimidine-3-carboxamide]", "IC50": 5.9}
{"smiles": "NCC1(F)CCN(c2cnc(Sc3cccc(NC(=O)c4c(O)nc5ccccn5c4=O)c3Cl)c(N)n2)CC1", "note": "[Example 15, N-(3-((3-amino-5-(4-(aminomethyl)-4-fluoropiperidin-1-yl)pyrazin-2-yl)thio)-2-chlorophenyl)-2-hydroxy-4-oxo-4H-pyrido[1,2-a]pyrimidine-3-carboxamide]", "IC50": 10}
{"smiles": "NCC1(F)CCN(c2cnc(Sc3cccc(NC(=O)c4c(O)nc5n(c4=O)CCCC5)c3Cl)c(N)n2)CC1", "note": "[Example 16, N-(3-((3-amino-5-(4-(aminomethyl)-4-fluoropiperidin-1-yl)pyrazin-2-yl)thio)-2-chlorophenyl)-2-hydroxy-4-oxo-6,7,8,9-tetrahydro-4H-pyrido[1,2-a]pyrimidine-3-carboxamide]", "IC50": 8}
{"smiles": "NCC1CCN(c2cnc(Sc3cccc(NC(=O)c4c(O)nc5ccccn5c4=O)c3Cl)c(N)n2)C1", "note": "(stereo not shown) [Example 17]", "IC50": 13}
{"smiles": "Nc1nc(N2CCC(C(N)C(F)(F)F)C2)cnc1Sc1cccc(NC(=O)c2c(O)nc3ccccn3c2=O)c1Cl", "note": "(stereo not shown) [Example 18, N-(3-((3-amino-5-(3-(1-amino-2,2,2-trifluoroethyl)pyrrolidin-1-yl)pyrazin-2-yl)thio)-2-chlorophenyl)-2-hydroxy-4-oxo-4H-pyrido[1,2-a]pyrimidine-3-carboxamide]", "IC50": 789}
{"smiles": "Nc1nc(N2CCC(N)(C(F)(F)F)CC2)cnc1Sc1cccc(NC(=O)c2c(O)nc3ccccn3c2=O)c1Cl", "note": "[Example 19, N-(3-((3-amino-5-(4-amino-4-(trifluoromethyl)piperidin-1-yl)pyrazin-2-yl)thio)-2-chlorophenyl)-2-hydroxy-4-oxo-4H-pyrido[1,2-a]pyrimidine-3-carboxamide]", "IC50": 2190}
{"smiles": "Nc1nc(N2CCC(N)(C(F)(F)F)CC2)cnc1Sc1cccc(NC(=O)c2c(O)nc3n(c2=O)CCCC3)c1Cl", "note": "[Example 20, N-(3-((3-amino-5-(4-amino-4-(trifluoromethyl)piperidin-1-yl)pyrazin-2-yl)thio)-2-chlorophenyl)-2-hydroxy-4-oxo-6,7,8,9-tetrahydro-4H-pyrido[1,2-a]pyrimidine-3-carboxamide]", "IC50": 5000}
{"smiles": "Nc1nc(N2CCC3(CC2)CCC(F)(F)[C@H]3N)cnc1Sc1cccc(NC(=O)c2c(O)nc3ccccn3c2=O)c1Cl", "note": "[Example 22, (S)-N-(3-((3-amino-5-(1-amino-2,2-difluoro-8-azaspiro[4.5]decan-8-yl)pyrazin-2-yl)thio)-2-chlorophenyl)-2-hydroxy-4-oxo-4H-pyrido[1,2-a]pyrimidine-3-carboxamide]", "IC50": 10}
{"smiles": "Nc1nc(N2CCC3(CCC[C@H]3N)CC2)cnc1Sc1cccc(NC(=O)c2c(O)nc3ccccn3c2=O)c1Cl", "note": "[Example 23, (R)-N-(3-((3-amino-5-(1-amino-8-azaspiro[4.5]decan-8-yl)pyrazin-2-yl)thio)-2-chlorophenyl)-2-hydroxy-4-oxo-4H-pyrido[1,2-a]pyrimidine-3-carboxamide]", "IC50": 5}
{"smiles": "Nc1nc(N2CCC3(CCC[C@H]3N)CC2)cnc1Sc1cccc(NC(=O)c2c(O)nc3n(c2=O)CCCC3)c1Cl", "note": "[Example 24, (R)-N-(3-((3-amino-5-(1-amino-8-azaspiro[4.5]decan-8-yl)pyrazin-2-yl)thio)-2-chlorophenyl)-2-hydroxy-4-oxo-6,7,8,9-tetrahydro-4H-pyrido[1,2-a]pyrimidine-3-carboxamide]", "IC50": 1}
{"smiles": "Cc1oc(=O)oc1COC(=O)NCC1(C)CCN(c2cnc(Sc3cccc(NC(=O)c4c(O)nc5ccccn5c4=O)c3Cl)c(N)n2)CC1", "note": "[Example 25, (5-Methyl-2-oxo-1,3-dioxol-4-yl)methyl ((1-(6-amino-5-((2-chloro-3-(2-hydroxy-4-oxo-4H-pyrido[1,2-a]pyrimidine-3-carboxamido)phenyl)thio)pyrazin-2-yl)-4-methylpiperidin-4-yl)methyl)carbamate]", "IC50": 80}
{"smiles": "Nc1nc(N2CCC3(CC2)COC[C@H]3N)cnc1Sc1cccc(NC(=O)c2c(O)nc3n(c2=O)CCCC3)c1Cl", "note": "[Example 26, (S)—N-(3-((3-Amino-5-(4-amino-2-oxa-8-azaspiro[4.5]decan-8-yl)pyrazin-2-yl)thio)-2-chlorophenyl)-2-hydroxy-4-oxo-6,7,8,9-tetrahydro-4H-pyrido[1,2-a]pyrimidine-3-carboxamide]", "IC50": 18}
